Structures can show the parent of a compound that is named as a salt. Activity calls are given as the source filed them.
Columns and labels:
[1] = alpha-synuclein stem-loop luciferase translation blockers – H4 neuroglioma cells, luminescence, confirmation (AID 1988); assay type: functional, cell-based
[2] = luciferase reporter signal suppression in cells – H4 neuroglioma cells, luminescence, dose response (AID 1990); assay type: functional, cell-based
[3] = target: T1, DNA repair protein RAD52 homolog (Homo sapiens, UniProt P43351); assay type: functional, biochemical
T1 sequence (P43351 whole entry): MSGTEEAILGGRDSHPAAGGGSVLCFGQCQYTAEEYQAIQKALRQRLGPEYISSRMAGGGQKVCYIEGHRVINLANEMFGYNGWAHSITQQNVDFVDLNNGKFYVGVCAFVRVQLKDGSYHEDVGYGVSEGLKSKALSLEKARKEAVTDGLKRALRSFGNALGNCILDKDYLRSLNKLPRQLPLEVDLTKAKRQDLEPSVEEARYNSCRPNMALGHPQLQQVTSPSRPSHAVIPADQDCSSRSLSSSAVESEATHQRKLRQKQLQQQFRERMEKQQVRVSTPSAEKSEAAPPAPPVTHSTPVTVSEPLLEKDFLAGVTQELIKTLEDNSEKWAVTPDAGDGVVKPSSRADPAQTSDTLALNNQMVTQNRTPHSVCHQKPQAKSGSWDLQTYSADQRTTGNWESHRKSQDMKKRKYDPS

[4] = Luminescence Cell-Based Dose Response HTS to Identify Inhibitors of 5'UTR Stem-Loop Driven Prion Protein mRNA Translation in H4 Neuroglioblastoma Cells. [Related pubchem assays: 1827 (Project Summary), 1813 (Primary HTS)]; assay type: functional
[5] = target: T2, Adenosylmethionine-8-amino-7-oxononanoate aminotransferase (Mycobacterium tuberculosis, UniProt P9WQ81); experiment: Mycobacterium tuberculosis BioA enzyme inhibitor Measured in Biochemical System Using Plate Reader - 2163-02_Inhibitor_Dose_CherryPick_Activity.; assay type: functional, Mycobacterium tuberculosis UT205
T2 sequence (P9WQ81 whole entry): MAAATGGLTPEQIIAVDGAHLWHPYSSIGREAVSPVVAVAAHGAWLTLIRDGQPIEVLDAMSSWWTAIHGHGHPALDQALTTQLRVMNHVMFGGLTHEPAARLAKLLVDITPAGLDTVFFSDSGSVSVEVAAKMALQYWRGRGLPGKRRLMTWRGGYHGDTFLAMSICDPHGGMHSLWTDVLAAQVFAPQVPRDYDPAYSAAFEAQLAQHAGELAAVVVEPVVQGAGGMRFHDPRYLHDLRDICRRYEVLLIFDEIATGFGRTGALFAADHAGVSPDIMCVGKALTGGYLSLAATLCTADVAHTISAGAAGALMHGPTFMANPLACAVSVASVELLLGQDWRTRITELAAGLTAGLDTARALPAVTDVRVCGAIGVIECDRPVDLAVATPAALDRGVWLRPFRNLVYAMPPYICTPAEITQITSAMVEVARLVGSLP

[6] = target: T3, Small ubiquitin-related modifier 1 (Homo sapiens, UniProt P63165); experiment: SUMO1 protein-protein binding blockers, potency – biochemical, FRET, dose response (AID 624383); assay type: functional; details: read-out: IC50_Mean
[7] = target: T3, Small ubiquitin-related modifier 1; experiment: SUMO1 protein interaction blockers, potency – biochemical, fluorescence polarization, uHTS hits, dose response (AID 624382); assay type: functional; details: read-out: IC50_Mean
[8] = target: 26S proteasome non-ATPase regulatory subunit 14 (Homo sapiens, UniProt O00487); experiment: inhibition of proteasome subunit RPN11 – biochemical, fluorescence polarization, uHTS hits, confirmation (AID 602368); assay type: functional
Prothrombin = Prothrombin (Bos taurus, UniProt P00735); experiment: thrombin protease inhibitors – biochemical, fluorescence polarization, uHTS hits, dose response (AID 602369); assay type: functional
[9] = target: 72 kDa type IV collagenase (Homo sapiens, UniProt P08253); experiment: Dose Response validation of uHTS RPN11 inhibitor hits using a MMP-2 Fluorescence assay.; assay type: functional
[10] = target: T4, Trace amine-associated receptor 1 (Homo sapiens, UniProt Q96RJ0); experiment: Fluorescence-based cell-based high throughput dose response assay to identify agonists of the human trace amine associated receptor 1 (TAAR1).; assay type: functional
T4 sequence (Q96RJ0 whole entry): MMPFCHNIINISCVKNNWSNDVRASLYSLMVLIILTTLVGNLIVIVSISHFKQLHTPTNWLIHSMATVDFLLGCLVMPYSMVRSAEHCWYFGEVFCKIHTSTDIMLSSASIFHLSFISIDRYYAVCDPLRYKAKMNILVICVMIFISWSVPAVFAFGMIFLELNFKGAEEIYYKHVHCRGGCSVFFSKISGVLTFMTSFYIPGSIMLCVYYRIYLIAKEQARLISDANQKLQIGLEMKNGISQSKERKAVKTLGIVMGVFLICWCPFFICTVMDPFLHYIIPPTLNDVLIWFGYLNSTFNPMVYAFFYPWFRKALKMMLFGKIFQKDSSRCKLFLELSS

[11] = target: T4, Trace amine-associated receptor 1; experiment: Counterscreen for agonists of the human trace amine associated receptor 1 (hTAAR1): Fluorescence-based cell-based high throughput dose response assay to identify hTAAR1 agonist that also desensitize TAAR1 receptor response.; assay type: functional
cells [12] = assay type: functional, cell-based
cells [13] = assay type: functional, cell-based; remark: listed apart in the source
[14] = system: Streptococcus sp. 'group A'; experiment: Streptococcus pyogenes SK(-)GAS viability under kanamycin – luminescence, BacTiterGlo, confirmation, counter-screen for streptokinase expression inhibitor project, dose response (AID 1900); assay type: functional, organism-based
[15] = blockers of CRF-binding protein–CRF-R2 complex – cell-based, uHTS hits, 384-well, dose response (AID 651639); assay type: functional, Homo sapiens; details: read-out: IC50_Mean
[16] = target: T5, Corticotropin-releasing factor receptor 2/Corticotropin-releasing factor-binding protein (Homo sapiens, UniProt P24387+Q13324); experiment: activators of CRF receptor 2 with binding protein – uHTS hits, confirmation (AID 602473); assay type: functional; details: read-out: EC50_Mean
T5 sequence (Q13324 whole entry): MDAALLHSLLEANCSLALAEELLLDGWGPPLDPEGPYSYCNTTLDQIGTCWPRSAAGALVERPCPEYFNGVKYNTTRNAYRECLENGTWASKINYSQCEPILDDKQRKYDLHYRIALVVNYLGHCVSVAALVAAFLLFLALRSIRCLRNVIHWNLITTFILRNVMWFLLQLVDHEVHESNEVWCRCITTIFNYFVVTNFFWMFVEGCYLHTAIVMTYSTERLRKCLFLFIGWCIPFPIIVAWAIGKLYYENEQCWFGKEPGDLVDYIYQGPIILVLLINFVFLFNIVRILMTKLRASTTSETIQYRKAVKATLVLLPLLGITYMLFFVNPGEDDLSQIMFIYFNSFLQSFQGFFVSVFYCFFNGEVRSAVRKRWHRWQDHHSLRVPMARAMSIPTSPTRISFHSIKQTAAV
T5 sequence (P24387 whole entry): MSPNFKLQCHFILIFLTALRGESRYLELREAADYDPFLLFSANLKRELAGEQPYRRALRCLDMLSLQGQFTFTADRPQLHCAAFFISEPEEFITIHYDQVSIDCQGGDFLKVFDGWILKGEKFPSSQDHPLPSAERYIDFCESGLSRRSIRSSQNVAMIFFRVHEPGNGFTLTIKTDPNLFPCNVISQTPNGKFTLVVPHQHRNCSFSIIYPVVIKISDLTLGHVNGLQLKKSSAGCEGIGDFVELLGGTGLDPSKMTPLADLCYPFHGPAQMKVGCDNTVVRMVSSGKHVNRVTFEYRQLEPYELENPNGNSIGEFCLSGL

Streptokinase A = target: T6, Streptokinase A (Streptococcus pyogenes serotype M1, UniProt P10520); experiment: viability-normalized secreted streptokinase activity reduction – plasminogen activation absorbance, OD405, dose response (AID 1914); assay type: functional, Streptococcus pyogenes M1 GAS;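 note: secreted streptokinase activity via plasminogen activation per viability signal from cell pellet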
T6 sequence (P10520 whole entry): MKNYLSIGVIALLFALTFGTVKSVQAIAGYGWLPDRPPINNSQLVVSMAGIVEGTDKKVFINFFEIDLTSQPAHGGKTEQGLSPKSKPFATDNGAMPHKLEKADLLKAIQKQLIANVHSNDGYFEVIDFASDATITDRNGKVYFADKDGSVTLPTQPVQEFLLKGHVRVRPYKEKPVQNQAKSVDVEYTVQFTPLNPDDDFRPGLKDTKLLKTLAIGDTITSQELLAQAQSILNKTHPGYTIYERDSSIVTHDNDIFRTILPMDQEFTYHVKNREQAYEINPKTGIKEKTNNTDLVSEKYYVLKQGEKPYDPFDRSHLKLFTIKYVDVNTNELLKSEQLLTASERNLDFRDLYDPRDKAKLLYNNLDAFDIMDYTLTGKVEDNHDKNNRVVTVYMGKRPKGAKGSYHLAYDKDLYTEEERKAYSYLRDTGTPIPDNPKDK

Streptococcus = experiment: GAS UMAA2166 growth inhibition – luminescence, BacTiterGlo, counter-screen for streptokinase expression inhibitor project, dose response (AID 1915); assay type: functional, organism-based;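 note: potency for reduction of bacterial viability or growth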
[17] = target: T5, Corticotropin-releasing factor receptor 2/Corticotropin-releasing factor-binding protein; experiment: Dose Response confirmation of uHTS hits for small molecule antagonists of the CRF-binding protein and CRF-R2 receptor complex.; assay type: functional; details: read-out: IC50_Mean
H9c2 = experiment: cells; assay type: functional, cell-based; details: Rattus norvegicus, H9c2, Myocardium;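 note: confirmatory concentration-response retest of ultra-high-throughput screening hits for modulation of myocardial damage; cell death induced by hydrogen peroxide oxidative stress; compound pretreatment for 60 min then peroxide exposure for 2 h; potency is for protecting the cells against peroxide damage rather than for killing them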
[18] = target: T7, Fructose-bisphosphate aldolase (Mycobacterium tuberculosis, UniProt P9WQA3); experiment: Fluorescence-based biochemical high throughput dose response assay for inhibitors of the fructose-bisphosphate aldolase (FBA) of M. tuberculosis.; assay type: functional
T7 sequence (P9WQA3 whole entry): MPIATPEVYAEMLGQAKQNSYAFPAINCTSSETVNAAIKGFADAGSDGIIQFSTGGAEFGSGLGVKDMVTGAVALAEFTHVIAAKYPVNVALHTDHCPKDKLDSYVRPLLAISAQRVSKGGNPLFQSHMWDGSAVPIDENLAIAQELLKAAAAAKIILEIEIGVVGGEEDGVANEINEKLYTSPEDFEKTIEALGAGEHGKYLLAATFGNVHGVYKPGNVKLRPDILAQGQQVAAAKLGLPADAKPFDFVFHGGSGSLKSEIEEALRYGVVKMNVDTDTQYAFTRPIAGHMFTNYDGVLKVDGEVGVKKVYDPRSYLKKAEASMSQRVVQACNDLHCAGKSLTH

T3 sequence (P63165 whole entry): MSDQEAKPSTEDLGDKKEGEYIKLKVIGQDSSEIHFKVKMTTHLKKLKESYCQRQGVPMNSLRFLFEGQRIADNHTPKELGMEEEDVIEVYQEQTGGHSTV
Chain of 72 kDa type IV collagenase (P08253 whole entry): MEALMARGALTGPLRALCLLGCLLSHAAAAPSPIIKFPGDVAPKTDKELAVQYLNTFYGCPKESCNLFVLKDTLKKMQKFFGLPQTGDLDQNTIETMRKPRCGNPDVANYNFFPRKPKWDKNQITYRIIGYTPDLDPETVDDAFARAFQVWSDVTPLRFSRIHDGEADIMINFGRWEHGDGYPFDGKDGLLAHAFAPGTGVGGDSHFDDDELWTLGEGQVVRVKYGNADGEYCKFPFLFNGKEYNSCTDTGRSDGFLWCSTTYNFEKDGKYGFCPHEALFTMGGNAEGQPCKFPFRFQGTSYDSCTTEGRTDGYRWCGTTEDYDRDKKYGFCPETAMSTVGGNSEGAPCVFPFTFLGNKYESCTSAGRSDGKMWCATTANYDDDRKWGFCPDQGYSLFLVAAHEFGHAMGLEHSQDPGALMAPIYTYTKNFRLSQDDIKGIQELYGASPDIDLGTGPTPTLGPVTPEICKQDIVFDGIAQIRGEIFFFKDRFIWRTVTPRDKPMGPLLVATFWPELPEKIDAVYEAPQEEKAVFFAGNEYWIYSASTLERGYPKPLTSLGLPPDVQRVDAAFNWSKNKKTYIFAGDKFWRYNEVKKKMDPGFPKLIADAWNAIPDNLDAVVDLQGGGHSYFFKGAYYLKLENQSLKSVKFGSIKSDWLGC
Chain of 26S proteasome non-ATPase regulatory subunit 14 (O00487 whole entry): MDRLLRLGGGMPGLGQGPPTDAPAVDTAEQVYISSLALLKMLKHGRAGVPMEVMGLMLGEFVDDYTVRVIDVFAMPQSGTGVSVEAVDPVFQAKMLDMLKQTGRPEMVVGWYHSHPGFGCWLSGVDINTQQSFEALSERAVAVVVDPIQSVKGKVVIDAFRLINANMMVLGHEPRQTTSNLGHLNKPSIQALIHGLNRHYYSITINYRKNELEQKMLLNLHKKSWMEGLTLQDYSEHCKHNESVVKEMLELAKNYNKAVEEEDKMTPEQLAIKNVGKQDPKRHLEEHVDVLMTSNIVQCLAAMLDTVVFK

CN1CCN(C2Cc3cc(Cl)ccc3Sc3cc(F)ccc32)CC1 (stereo not given)
EC50 [1]: 8.62 µM (active) | EC50 [2]: > 120 µM (not active) | AC50 [3]: 18.1 µM (active) | EC50 [4]: > 120 µM (not active)

COc1ccc(C2c3c(oc4ccc(Cl)cc4c3=O)C(=O)N2CCN2CCOCC2)cc1 (stereo not given)
AC50 [5]: 3.7 µM (active)

CC(=O)c1ccc(NC(=O)CN2CCN(c3ccccc3)CC2)cc1
AC50 [5]: 8.6 µM (active)

O=C(c1ccc(S(=O)(=O)Nc2ccccc2F)cc1)N1CCN(c2ccccc2O)CC1
AC50 [5]: 3.62 µM (active)

CCC(CO)Oc1cc(NC(=O)c2ccc(N)cc2)c2ncn(C(C)C)c2c1 (stereo not given)
IC50 [6]: 9.23 µM (active) | IC50 [7]: > 66.6 µM (inactive) | IC50 [8]: 19.6 µM (active) | IC50 (Prothrombin): > 100 µM (inactive) | IC50 [9]: 64.6 µM (active)

CCn1c(C)c(C(C)=O)c(NCc2ccccc2)nc1=S
AC50 [3]: 11 µM (active)

O=S(=O)(NCCc1ccccc1)c1ccc(F)cc1
EC50 [10]: 1.37 µM (active) | IC50 [11]: 4.22 µM (active) | EC50 (cells [12]): > 29.9 µM (inactive) | IC50 (cells [13]): > 29.9 µM (inactive)

CCc1ccc(N2CN(CCc3ccccc3)CN=C2S)cc1
EC50 [10]: 2.26 µM (active) | IC50 [11]: 9.18 µM (active) | EC50 (cells [12]): > 29.9 µM (inactive) | IC50 (cells [13]): > 29.9 µM (inactive)

Cc1ccccc1-c1cc2nc(-c3ccc([N+](=O)[O-])cc3)cc(O)n2n1
EC50 [14]: 9.23 µM (active) | IC50 [15]: 3.21 µM (active) | EC50 [16]: > 53 µM (inactive) | EC50 (Streptokinase A): > 150 µM (not active) | EC50 (Streptococcus): 60.1 µM (active) | IC50 [17]: 4.74 µM (active)

CC1=CC(C)(C)N2C(=O)C3(C(C#N)=C(N)Oc4cc(O)ccc43)c3c(C)c(C)cc1c32 (stereo not given)
IC50 [15]: 16.5 µM (active) | EC50 [16]: > 53 µM (inactive) | IC50 [17]: 29.4 µM (active)

CC1(C)CC(=O)C2=C(C1)N(CCN1CCOCC1)C1=C(C(=O)CC(C)(C)C1)C2c1ccc(Cl)cc1
IC50 (H9c2): > 79 µM (inactive) | IC50 [18]: 2.33 µM (active)

Cc1nn(S(=O)(=O)c2cccs2)c(C)c1Sc1ccc([N+](=O)[O-])cc1
IC50 [15]: 12.8 µM (active) | EC50 [16]: > 53 µM (inactive) | IC50 [17]: < 0.368 µM (active)

CNC(=O)C[C@H]1CC[C@@H]2[C@H](COC[C@@H](O)CN2C(=O)Nc2ccc3c(c2)OCO3)O1
AC50 [5]: 10.4 µM (active)

CC1(C)Oc2cc3oc(C(=O)O)cc(=O)c3cc2-c2ccccc21
IC50 [18]: > 0.37 µM (active)

O=C(Cc1nnc(O)nc1O)N/N=C/c1ccccc1
EC50 [10]: > 29.9 µM (inactive) | IC50 [11]: > 29.9 µM (inactive) | EC50 (cells [12]): > 29.9 µM (inactive) | IC50 (cells [13]): > 29.9 µM (inactive)

c1ccc2c(c1)CCCC2C1=NCCN1 (stereo not given) [TETRAHYDROZOLINE HYDROCHLORIDE]
EC50 [10]: 0.154 µM (active) | IC50 [11]: 0.157 µM (active) | EC50 (cells [12]): > 29.9 µM (inactive) | IC50 (cells [13]): > 29.9 µM (inactive)

Reference: ChEMBL document CHEMBL1201862, “PubChem BioAssay data set” (2004)
